Results published in publication PMC3711097 (Molecular bioSystems, 2013).

Test system: KedF
Assay: continuous spectrophotometric assay with periodate, […] nm
Assay type: biochemical, Streptoalloteichus sp. ATCC 53650
Conditions: 50 mM phosphate pH 8.0, 25 °C, 3 mM sodium periodate

SMILES | Km (9.6 μM KedF) | Km (4.0 μM KedF)
c1ccc([C@@H]2CO2)cc1 [(R)-styrene oxide] | 3500 ± 640 µM | 
c1ccc([C@H]2CO2)cc1 [(S)-styrene oxide] |  | 910 ± 100 µM
